The target in the assay is recombinant eIF4E (Homo sapiens (Human), UniProt P06730). Nature of the assay: Fluorescence polarization competition assay for eIF4E binding potency. A digest of the protocol: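 IC50 derived from fluorescence polarization over an 8-point, 3-fold compound series after 30 min room-temperature equilibration in the dark. Mix: eIF4E 75 nM pre-bound 5 min to 20 nM EDA-m^7GDP-ATTO-550; buffer 20 mM Tris pH 7.5, 100 mM NaCl, 1 mM DTT, 0.02% Tween-20; DMSO 1%.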
On the technique in general: Fluorescence polarisation rises when a labelled molecule tumbles more slowly, as on binding a larger partner.

[1] abbreviates: inhibition of eIF4E/EDA-m7GDP-ATTO-550 binding, calculated IC50 values, Table 4B, read-out: IC50.
[2] abbreviates: fluorescence polarization competition, 75 nM recombinant eIF4E, 20 nM EDA-m7GDP-ATTO-550, IC50 class, read-out: elF4E FP.
Setting [3] is: inhibition of eIF4E/EDA-m7GDP-ATTO-550 binding by 50%, Table 4B calculated values, read-out: IC50.

Each structure is given as a SMILES string. Where two headings read alike, the source gives them in different places.

Sequence of recombinant eIF4E (P06730 whole entry): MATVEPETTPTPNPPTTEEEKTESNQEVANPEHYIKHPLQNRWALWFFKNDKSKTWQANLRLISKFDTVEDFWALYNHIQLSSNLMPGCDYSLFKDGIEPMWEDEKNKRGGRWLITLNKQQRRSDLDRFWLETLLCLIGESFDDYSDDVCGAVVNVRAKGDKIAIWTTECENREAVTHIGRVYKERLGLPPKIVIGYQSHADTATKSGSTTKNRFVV

Regarding `Cc1nc2cnc(N3CCC4(CC3)CCN4CC(F)F)c(C#N)c2c(=O)n1CCOc1ccc(Cl)cc1-c1ccnc2c(C(=O)O)csc12` [compound 1647], the IC50 under setting [1] was 19.6 nM.

For the compound `Cc1nc2cc(OC(F)F)c(CN(C)C)c(C#N)c2c(=O)n1CCOc1ccc(Cl)cc1-c1ccnc2c(C(=O)O)csc12` [compound 531], the IC50 was under 50 nM under setting [2] and 42.9 nM under setting [3].

Consider `Cc1cc(-c2cc(Cl)ccc2OCCn2c(C)nc3c(CN4CCN(C)CC4)c(C(F)(F)F)cc(C#N)c3c2=O)c2scc(C(=O)O)c2n1` [compound 483], for which the IC50 under setting [2] is under 50 nM and the IC50 under setting [3] was 42.1 nM. Consider `Cc1cc(-c2cc(Cl)ccc2OCCn2c(C)nc3c(C)nc(CN(C)C)c(C#N)c3c2=O)c2scc(C(=O)O)c2n1` [compound 1621], for which the IC50 under setting [1] is 72.1 nM.

Consider `Cc1cnc(-c2nc3c(=O)n(CCOc4ccc(Cl)cc4-c4cc(C)nc5c(C(=O)O)csc45)c(C)nc3cc2C(F)(F)F)c(C)n1` [compound 1023], for which the IC50 under setting [2] is under 50 nM and the IC50 under setting [3] was 49.8 nM.

As to `Cc1nc2c(Cl)ccc(C#N)c2c(=O)n1CCOc1ccc(Cl)cc1-c1ccnc2c(C(=O)O)csc12` [compound 1942], the IC50 under setting [1] is 182 nM. Regarding `Cc1nc2cc(C(F)(F)F)cc(C#N)c2c(=O)n1CCOc1ccc(Cl)cc1-c1ccc(F)c2c(C(=O)O)csc12` [compound 122], the IC50 under setting [2] is under 50 nM and the IC50 under setting [3] is 24.4 nM.

Take `COc1ccc(OCCn2cnc3cnc(C#N)cc3c2=O)c(-c2cccc(C(=O)O)c2)c1` [compound 124]: the IC50 was over 1000 nM under setting [2] and 9130 nM under setting [3]. For `Cc1nc2cnc(N(C)C3CCN([C@H]4C[C@@H](OC(F)(F)F)C4)CC3)c(C#N)c2c(=O)n1CC#Cc1ccc(Cl)cc1-c1ccnc2c(C(=O)NS(=O)(=O)c3ccccn3)csc12` [compound 1611], the IC50 under setting [1] was 3.85 nM.

In the case of `COC1CCN(c2ncc3nc(C)n(CCOc4ccc(Cl)cc4-c4cc(C)nc5c(C(=O)O)csc45)c(=O)c3c2C#N)C1` (stereo not shown) [compound 1234], the IC50 reads like this: under setting [2], under 50 nM; under setting [1], 30.2 nM.

For the compound `Cc1nc2cc(F)c(C#N)c(C#N)c2c(=O)n1CCOc1ccc(Cl)cc1-c1ccnc2c(C(=O)O)csc12` [compound 276], the IC50 by setting is: under setting [2], under 50 nM; under setting [3], 22.8 nM.

Regarding `Cc1cc(-c2cc(Cl)ccc2OCCn2c(C)nc3cc(F)c(-c4ccccc4)c(C#N)c3c2=O)c2scc(C(=O)O)c2n1` [compound 935], the IC50 is under 50 nM under setting [2] and 19.6 nM under setting [3]. In the same order, the values of `CCOc1ncc2nc(C)n(CCOc3ccc(Cl)cc3-c3cc(C)nc4c(C(=O)O)csc34)c(=O)c2c1C#N` [compound 1067] are under 50 nM and 10.5 nM.

In the case of `N#Cc1cc2c(=O)n(CCOc3ccc(Cl)cc3-c3cc4c(c(C(=O)O)c3)OCC4)cnc2cn1` [compound 104], the IC50 is 50 to 1000 nM under setting [2] and 586 nM under setting [3]. Take `Cc1cc(-c2cc(Cl)ccc2OCCn2c(C)nc3cnc(NCC(F)(F)F)c(C#N)c3c2=O)c2scc(C(=O)O)c2n1` [compound 972]: the IC50 is, setting by setting: under setting [2], under 50 nM; under setting [3], 9.77 nM. In the same order, the values of `N#Cc1cc(C(F)(F)F)cc2nc(C#N)n(CCOc3ccc(Cl)cc3-c3cccc(C(=O)O)c3)c(=O)c12` [compound 185] are 50 to 1000 nM and 94.9 nM. On the same counts, the results for `Cc1nc2cc(C(F)F)c(C(F)F)c(C#N)c2c(=O)n1CCOc1ccc(Cl)cc1-c1cccc(C(=O)O)c1` [compound 64] are 50 to 1000 nM and 62.5 nM. Consider `Cc1nc2cc(C(F)(F)F)c(CCN(C)CC(F)F)c(C#N)c2c(=O)n1CCOc1ccc(Cl)cc1-c1ccnc2c(C(=O)O)csc12` [compound 1288], for which, under setting [1], the IC50 was 36.7 nM. With `Cc1cc(-c2cc(Cl)ccc2OCCn2c(C)nc3cc(C(F)(F)F)c(C4CN(C)C4)c(C#N)c3c2=O)c2scc(C(=O)O)c2n1` [compound 652], the IC50 reads like this: under setting [2], under 50 nM; under setting [3], 6.68 nM. On to `Cc1nc2cnc(N(C)C3CCN(CC(F)(F)C(F)F)CC3)c(C#N)c2c(=O)n1CCOc1ccc(Cl)cc1-c1ccnc2c(C(=O)O)csc12` [compound 1515], for which, under setting [1], the IC50 was 32.1 nM. Turning to `Cc1nc2cc(OC(F)(F)F)c(CN(C)C)c(C#N)c2c(=O)n1CCOc1ccc(Cl)cc1-c1ccnc2c(C(=O)O)csc12` [compound 532], the IC50 is, setting by setting: under setting [2], under 50 nM; under setting [3], 45.1 nM.

Take `Cc1nc2cc(C(F)(F)F)c(F)c(C#N)c2c(=O)n1CCOc1ccc(Cl)cc1-c1ccnc2c(C(=O)O)csc12` [compound 246]: the IC50 under setting [2] was under 50 nM and the IC50 under setting [3] was 43 nM.

As for `Cc1cc(-c2cc(Cl)ccc2OCCn2c(C)nc3cnc(N(C)N(C)C)c(C#N)c3c2=O)c2scc(C(=O)O)c2n1` [compound 978], the IC50 is under 50 nM under setting [2] and 20.7 nM under setting [3]. In the case of `Cc1cc(-c2cc(Cl)ccc2OCCn2c(C)nc3cc(C(F)(F)F)c(-c4ncccc4F)c(C#N)c3c2=O)c2scc(C(=O)O)c2n1` [compound 751], the IC50 is 50 to 1000 nM under setting [2] and 69.8 nM under setting [3]. On the same counts, the results for `Cc1cc(-c2c(C(F)(F)F)cc3nc(C)n(CCOc4ccc(Cl)cc4-c4cc(C)nc5c(C(=O)O)csc45)c(=O)c3c2C#N)ccn1` [compound 341] are under 50 nM and 45 nM.

`Cc1cc2cc(C(F)(F)F)cc(C#N)c2c(O)c1CCOc1ccc(Cl)cc1-c1ccnc2c(C(=O)O)csc12` [compound 1976]: the IC50 under setting [1] is 1850 nM. In the case of `O=C(O)c1cc(-c2cc(Cl)ccc2OCCn2nnc3ccccc3c2=O)ccn1` [compound 2014], under setting [1], the IC50 was 12200 nM. As for `Cc1cc(-c2cc(Cl)ccc2OCCn2c(C)nc3cc(Cl)c(Nc4cccnc4)c(C#N)c3c2=O)c2scc(C(=O)O)c2n1` [compound 700], the IC50 under setting [2] is under 50 nM and the IC50 under setting [3] is 22.4 nM.

Take `N#Cc1cc2c(=O)n(CC#Cc3ccc(Cl)cc3-c3cccc(C(=O)O)c3)cnc2cn1` [compound 130]: the IC50 is, setting by setting: under setting [2], over 1000 nM; under setting [3], 1420 nM.

Take `Cc1nc2cc(C#N)cc(C#N)c2c(=O)n1CCOc1ccc(Cl)cc1-c1ccnc2c(C(=O)O)csc12` [compound 212]: the IC50 under setting [2] was under 50 nM and the IC50 under setting [3] was 40 nM.

For `C#Cc1ccc(C#N)c2c(=O)n(CCOc3ccc(Cl)cc3-c3ccnc4c(C(=O)O)csc34)c(C)nc12` [compound 211], the IC50 by setting is: under setting [2], under 50 nM; under setting [3], 35.4 nM. On the same counts, the results for `Cc1cc(-c2cc(Cl)ccc2C#CCn2c(C)nc3cc(C(F)(F)F)c(N4CCN(CCO)CC4)c(C#N)c3c2=O)c2scc(C(=O)O)c2n1` [compound 856] are under 50 nM and 13.7 nM. Turning to `Cc1nc2cnc(N3CCN(CCCC(F)(F)F)CC3)c(C#N)c2c(=O)n1CC#Cc1ccc(Cl)cc1-c1ccnc2c(C(=O)O)csc12` [compound 1458], the IC50 under setting [1] was 19.1 nM.

Turning to `Cc1cc(-c2cc(Cl)ccc2OCCn2c(C)nc3cnc(-c4cc(Cl)ccc4Cl)c(C#N)c3c2=O)c2scc(C(=O)O)c2n1` [compound 954], the IC50 is under 50 nM under setting [2] and 8.29 nM under setting [3].

For `Cc1cc(-c2cc(Cl)ccc2OCCn2c(C)nc3cc(Cl)c(N4CC(C)(CO)C4)c(C#N)c3c2=O)c2scc(C(=O)O)c2n1` [compound 703], the IC50 under setting [2] was under 50 nM and the IC50 under setting [3] was 3.18 nM.

Take `Cc1nc2cnc(Nc3cc(F)cc(F)c3)cc2c(=O)n1CCOc1ccc(Cl)cc1-c1cccc(C(=O)O)c1` [compound 2002]: under setting [1], the IC50 is 259 nM. On to `Cc1nc2cnc(N3CCN(C)CC3)c(C#N)c2c(=O)n1CC#Cc1ccc(Cl)cc1-c1ccnc2c(C(=O)O)csc12` [compound 842], for which the IC50 is under 50 nM under setting [2] and 20.9 nM under setting [3].

In the case of `Cc1nc2cc(S(C)(=O)=O)cc(C#N)c2c(=O)n1CCOc1ccc(Cl)cc1-c1ccnc2c(C(=O)O)csc12` [compound 194], the IC50 was under 50 nM under setting [2] and 35.8 nM under setting [3]. In the same order, the values of `Cc1cc(-c2cc(Cl)ccc2OCCn2c(C)nc3cc(Cl)c(N4CCC(F)(F)C4)c(C#N)c3c2=O)c2scc(C(=O)O)c2n1` [compound 690] are under 50 nM and 5.95 nM. On to `Cc1nc2cnc(N(C)C3CCN(C4CC(F)(F)C4)CC3)c(C#N)c2c(=O)n1CC#Cc1ccc(Cl)cc1-c1ccnc2c(C(=O)NS(=O)(=O)CF)csc12` [compound 1817], for which the IC50 under setting [1] is 25.8 nM.

In the case of `Cc1nc2cc(C(F)(F)F)c(N3CCN(C4CC4)CC3)c(C#N)c2c(=O)n1CCOc1ccc(Cl)cc1-c1ccnc2c(C(=O)O)csc12` [compound 1291], the IC50 under setting [1] is 41.2 nM.

With `Cc1nc2cc(C(F)(F)F)cc(C#N)c2c(=O)n1CCOc1ccc(Cl)cc1-c1ccc(F)c2c(C(=O)O)csc12` [compound 2018], the IC50 under setting [1] was 24.4 nM.

With `Cc1cc(-c2cc(Cl)ccc2OCCn2c(C)nc3c(C)nc(-c4ccccc4C)c(C#N)c3c2=O)c2scc(C(=O)O)c2n1` [compound 479], the IC50 under setting [2] was under 50 nM. For `Cc1cc(-c2cc(Cl)ccc2OCCn2c(C)nc3cnc(C4CC4C(F)(F)F)c(C#N)c3c2=O)c2scc(C(=O)O)c2n1` (stereo not shown) [compound 994], the IC50 under setting [2] was under 50 nM and the IC50 under setting [3] is 23.4 nM.

As to `Cc1nc2cnc(N3CCN(C4(C)CC(F)(F)C4)CC3)c(C#N)c2c(=O)n1CC#Cc1ccc(Cl)cc1-c1ccnc2c(C(=O)O)csc12` [compound 1493], under setting [1], the IC50 was 6.83 nM. On to `CCc1cc(-c2cc(Cl)ccc2OCCn2c(C)nc3cnc(N4CCN(C)CC4)c(C#N)c3c2=O)c2scc(C(=O)O)c2n1` [compound 1086], for which the IC50 under setting [2] is under 50 nM and the IC50 under setting [3] was 38.4 nM. On the same counts, the results for `Cc1nc2cc(C(F)(F)F)cc(C#N)c2c(=O)n1CCOc1ccc(Cl)cc1-c1cc(C(=O)O)nc2ccsc12` [compound 201] are 50 to 1000 nM and 354 nM.

The record behind these values is patent US11286268B1, “EIF4E-inhibiting compounds and methods” (EFFECTOR THERAPEUTICS, INC., priority 2019, dated 2022).
